Structures are written as SMILES. Where a SMILES comes first, the peptide text is derived from it. [ ]: non-standard residue; d: D form. hLeu = CC(C)CC[C@H](N)C(=O)O

The target in this test is T1, Interleukin-23 receptor (Homo sapiens, UniProt Q5VWK5).
T1 sequence (Q5VWK5 whole entry): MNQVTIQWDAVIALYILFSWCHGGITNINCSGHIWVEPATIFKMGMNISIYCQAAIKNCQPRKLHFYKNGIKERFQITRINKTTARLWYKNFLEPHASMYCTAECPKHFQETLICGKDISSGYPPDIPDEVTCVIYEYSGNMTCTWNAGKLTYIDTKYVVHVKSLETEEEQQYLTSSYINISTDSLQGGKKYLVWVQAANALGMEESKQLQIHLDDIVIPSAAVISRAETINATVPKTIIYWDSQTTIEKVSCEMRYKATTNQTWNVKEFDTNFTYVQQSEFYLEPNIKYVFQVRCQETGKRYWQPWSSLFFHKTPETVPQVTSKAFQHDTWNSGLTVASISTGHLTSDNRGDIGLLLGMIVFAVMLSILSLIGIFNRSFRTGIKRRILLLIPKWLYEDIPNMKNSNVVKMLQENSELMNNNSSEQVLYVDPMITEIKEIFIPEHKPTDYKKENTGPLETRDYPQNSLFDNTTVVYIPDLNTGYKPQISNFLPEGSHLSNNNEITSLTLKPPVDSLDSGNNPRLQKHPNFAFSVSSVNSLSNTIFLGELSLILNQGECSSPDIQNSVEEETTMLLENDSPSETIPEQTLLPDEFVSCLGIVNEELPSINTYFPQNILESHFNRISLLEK
The experiment in a line: Inhibition of interleukin-23 binding to human interleukin-23 receptor incubated for 2 hrs by competitive binding ELISA. For orientation: In an ELISA, binding on a coated surface is turned into a signal by an enzyme label.
Broadly, the IC50 is the point on the concentration scale where inhibition reaches its midpoint. Low values mean greater potency in that assay, high ones weaker potency in that assay. Regarding `CC(=O)N[C@@H](CS)C(=O)N[C@@H](CCCNC(=N)N)C(=O)N[C@H](C(=O)N[C@@H](Cc1c[nH]c2ccccc12)C(=O)N[C@@H](CCC(=O)O)C(=O)N[C@@H](CS)C(=O)N[C@@H](Cc1ccc(O)cc1)C(=O)N[C@@H](Cc1c[nH]c2ccccc12)C(=O)N[C@@H](Cc1cnc[nH]1)C(=O)N[C@@H](CCC(=O)O)C(=O)N[C@@H](Cc1ccc(O)cc1)C(=O)NCC(N)=O)[C@@H](C)O` (Ac-CRTWECYWHEYG-NH2), the concentration for half-maximal inhibition (IC50) was less than 500 nM. Molecule `CC(C)[C@H](NC(=O)[C@H](Cc1c[nH]c2ccccc12)NC(=O)[C@H](CC(=O)O)NC(=O)[C@H](C)NC(=O)[C@@H](N)CS)C(=O)N[C@@H](CS)C(=O)N[C@@H](Cc1ccc(O)cc1)C(=O)N[C@@H](C)C(=O)N[C@@H](Cc1cnc[nH]1)C(=O)N[C@H](C(=O)N[C@@H](Cc1ccccc1)C(=O)NCC(N)=O)[C@@H](C)O` showed an IC50 greater than 1000 nM. `CC(=O)NCC(=O)N[C@H](CC(N)=O)C(=O)N[C@H](CCC(=O)O)C(=O)N[C@H](CC(C)C)C(=O)N[C@H](Cc1c[nH]c2ccccc12)C(=O)N[C@H](Cc1ccc(O)cc1)C(=O)N[C@H](CS)C(=O)N[C@H](CCC(N)=O)C(=O)N[C@H](Cc1c[nH]c2ccccc12)C(=O)N[C@@H](C(=O)N[C@H](CCC(N)=O)C(=O)N[C@H](CS)C(N)=O)[C@H](C)O` came in with an IC50 greater than 30000 nM.

Consider `CC(=O)N[C@@H](CS)C(=O)N[C@@H](CCC(N)=O)C(=O)N[C@H](C(=O)N[C@@H](Cc1c[nH]c2ccccc12)C(=O)N[C@@H](CCC(N)=O)C(=O)N[C@@H](CS)C(=O)N[C@@H](Cc1ccc(O)cc1)C(=O)N[C@@](C)(Cc1c[nH]c2ccccc12)C(=O)N[C@@H](CCC(C)C)C(=O)N[C@@H](CCC(=O)O)C(=O)N[C@@H](CCC(N)=O)C(=O)NCC(N)=O)[C@@H](C)O`, for which the IC50 is greater than 30000 nM. Next, `CC(=O)N[C@@H](CS)C(=O)N[C@@H](CCC(N)=O)C(=O)N[C@H](C(=O)N[C@@H](Cc1c[nH]c2ccccc12)C(=O)N[C@@H](CCC(=O)O)C(=O)N[C@@H](CS)C(=O)N[C@@H](Cc1ccc(O)cc1)C(=O)N[C@@H](Cc1c[nH]c2ccccc12)C(=O)N[C@@H](Cc1cnc[nH]1)C(=O)N[C@@H](CC(C)C)C(=O)N[C@@H](Cc1ccc(O)cc1)C(=O)NCC(N)=O)[C@@H](C)O` (Ac-CQTWECYWHLYG-NH2): less than 500 nM; `CC(=O)N[C@@H](CS)C(=O)N[C@@H](CCC(N)=O)C(=O)N[C@H](C(=O)N1CCC[C@H]1C(=O)N[C@@H](CCC(N)=O)C(=O)N[C@@H](CS)C(=O)N[C@@H](Cc1ccc(O)cc1)C(=O)N[C@@H](Cc1c[nH]c2ccccc12)C(=O)N[C@@H](CCC(C)C)C(=O)N[C@@H](CCC(=O)O)C(=O)N[C@@H](CC(N)=O)C(=O)NCC(N)=O)[C@@H](C)O` (Ac-CQTPQCYW[hLeu]ENG-NH2): greater than 10000 nM; `CC(=O)N[C@@H](CS)C(=O)N[C@@H](C)C(=O)N[C@@H](CC(=O)O)C(=O)N[C@@H](Cc1c[nH]c2ccccc12)C(=O)N[C@H](C(=O)N[C@@H](CS)C(=O)N[C@@H](Cc1ccc(O)cc1)C(=O)N[C@@H](Cc1c[nH]c2ccccc12)C(=O)N[C@@H](Cc1cnc[nH]1)C(=O)N[C@@H](CCC(=O)O)C(=O)N[C@@H](Cc1cnc[nH]1)C(=O)N[C@@H](CO)C(=O)N[C@@H](CCC(=O)O)C(=O)N[C@@H](CCCNC(=N)N)C(=O)N[C@H](C(=O)NCC(N)=O)C(C)C)C(C)C` (Ac-CADWVCYWHEHSERVG-NH2): 500 to 1000 nM.

`CC(=O)NCCCC[C@H](NC(=O)[C@](C)(CCCCN)NC(=O)NC(=O)[C@H](Cc1ccc(OCCN)cc1)NC(=O)[C@@H]1CSCC[C@H](NC(C)=O)C(=O)N[C@@H](CCC(N)=O)C(=O)N[C@@H]([C@@H](C)O)C(=O)N[C@@H](Cc2c[nH]c3ccccc23)C(=O)N[C@@H](CCC(N)=O)C(=O)N1)C(=O)N[C@@H](CC(N)=O)C(=O)NCC(N)=O` returned a concentration for half-maximal inhibition (IC50) greater than 3000 nM. Molecule `CC(=O)N[C@H]1CCSC[C@@H](C(=O)N[C@@H](Cc2ccc(C(N)=O)cc2)C(=O)N[C@@H](Cc2ccc3ccccc3c2)C(=O)NC(C)(C)C(=O)N[C@@H](CCC(=O)O)C(=O)N[C@@H](CC(N)=O)C(=O)NCC(N)=O)NC(=O)[C@H](CCC(N)=O)NC(=O)[C@H](Cc2c[nH]c3ccccc23)NC(=O)[C@H]([C@@H](C)O)NC(=O)[C@H](CCC(N)=O)NC1=O` returned an IC50 of 100 to 1000 nM.
